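Abbreviation: GI50, concentration required for 50% inhibition of growth. TGI: concentration producing complete growth inhibition.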
Key:
Test in all cases: growth of human tumour cells (NCI), 384-well format
[1] = test system: NCI-H23 lung
[2] = test system: NCI-H322M lung
[3] = test system: NCI-H460 NSCLC
[4] = test system: NCI-H522 lung
[5] = test system: NCI/ADR-RES ovarian
[6] = test system: OVCAR-3 ovarian
[7] = test system: OVCAR-4 ovarian
[8] = test system: OVCAR-5 ovarian
[9] = test system: OVCAR-8 ovarian
[10] = test system: PC-3 prostate
[11] = test system: RPMI-8226 leukemia
[12] = test system: RXF 393 renal
[13] = test system: SF-268 CNS
[14] = test system: SF-295 CNS
[15] = test system: SF-539 CNS
[16] = test system: SK-MEL-2 melanoma
[17] = test system: SK-MEL-28 melanoma
[18] = test system: SK-MEL-5 melanoma
[19] = test system: SK-OV-3 ovarian
[20] = test system: SN12C renal
[21] = test system: SNB-19 CNS
[22] = test system: SR leukemia
[23] = test system: SW-620 colon
[24] = test system: T-47D breast
[25] = test system: TK-10 renal
[26] = test system: U251 glioblastoma
[27] = test system: UACC-257 melanoma
[28] = test system: UACC-62 melanoma
[29] = test system: UO-31 renal

## Cc1[nH]c(/C=C2\C(=O)Nc3ccc(S(=O)(=O)Cc4c(Cl)cccc4Cl)cc32)c(C)c1C(=O)N1CCC[C@@H]1CN1CCCC1
[1]
  TGI: 6680 nM
[2]
  GI50: 1750 nM
  TGI: 3150 nM
[3]
  GI50: 1340 nM
  TGI: 2630 nM
[4]
  GI50: 1980 nM
  TGI: 3400 nM
[5]
  GI50: 1890 nM
  TGI: 3360 nM
[6]
  GI50: 1890 nM
  TGI: 3310 nM
[7]
  GI50: 1740 nM
  TGI: 3130 nM
[8]
  GI50: 1930 nM
  TGI: 3370 nM
[9]
  GI50: 1680 nM
  TGI: 3060 nM
[10]
  GI50: 1720 nM
  TGI: 3110 nM
[11]
  GI50: 1250 nM
  TGI: 2500 nM
[12]
  GI50: 1650 nM
  TGI: 3010 nM
[13]
  GI50: 1460 nM
  TGI: 2780 nM
[14]
  GI50: 1320 nM
  TGI: 2590 nM
[15]
  GI50: 1740 nM
  TGI: 3120 nM
[16]
  GI50: 1240 nM
  TGI: 2490 nM
[17]
  GI50: 1750 nM
  TGI: 3130 nM
[18]
  GI50: 1190 nM
  TGI: 2430 nM
[19]
  GI50: 1340 nM
  TGI: 2630 nM
[20]
  GI50: 1500 nM
  TGI: 2830 nM
[21]
  GI50: 1940 nM
  TGI: 3360 nM
[22]
  GI50: 1310 nM
  TGI: 2590 nM
[23]
  GI50: 1760 nM
  TGI: 3160 nM
[24]
  GI50: 1740 nM
  TGI: 3120 nM
[25]
  GI50: 1820 nM
  TGI: 3220 nM
[26]
  GI50: 1810 nM
  TGI: 3220 nM
[27]
  GI50: 1420 nM
  TGI: 2730 nM
[28]
  GI50: 1060 nM
  TGI: 2250 nM
[29]
  GI50: 1690 nM
  TGI: 3070 nM
